Literature values as cited in patent US9540355B2, “Irciniastatin analogues” (priority 2013, dated 2017).

Key:
[1] = tested on: SR; details: leukemia SR; read-out: LC50 (the source's name); cited from earlier work
[2] = tested on: NCI/ADR-RES; details: breast cancer NCI/ADR-RES; read-out: LC50 (the source's name); cited from earlier work
[3] = tested on: SK-MEL-2; details: melanoma SK-MEL-2; read-out: LC50 (the source's name); cited from earlier work
[4] = tested on: K-562; details: leukemia K-562; read-out: LC50 (the source's name); cited from earlier work
[5] = tested on: MCF-7; details: breast MCF-7; cited from earlier work
[6] = tested on: KM20L2; details: colon KM20L2; cited from earlier work
[7] = tested on: human umbilical vein endothelial cells (HUVEC); details: normal endothelial HUVEC; cited from earlier work
[8] = tested on: RPMI-8226; details: leukemia RPMI-8226; read-out: LC50 (the source's name); cited from earlier work
[9] = tested on: NCI-H460; details: lung NCI-H460; cited from earlier work
[10] = tested on: UACC-257; details: melanoma UACC-257; read-out: LC50 (the source's name); cited from earlier work
[11] = tested on: UACC-62; details: melanoma UACC-62; read-out: LC50 (the source's name); cited from earlier work

Q: Which CC50 [1] does the source give for `C=C(C)C[C@H](OC)[C@H](O)C(=O)N[C@@H](OC)[C@@H]1C[C@@H](O)C(C)(C)[C@@H](C[C@H](O)[C@@H](C)[C@H]2Cc3c(C)c(O)cc(O)c3C(=O)O2)O1` [Irciniastatin A, (+)-Irciniastatin A] here?
A: Its CC50 is over 25 µM.

Q: What about the CC50 [2] of the same compound?
A: The CC50 was 19 µM.

Q: And the CC50 [3]?
A: Its CC50 is over 25 µM.

Q: What about the CC50 [4] of the same compound?
A: Its CC50 is over 25 µM.

Q: What about the “Growth Inhibition of Cancer Cell Lines (GI50)” value (“Growth Inhibition” below) [5] of the same compound?
A: Its value is 3.2 ng/mL.

Q: And the “Growth Inhibition” value [6]?
A: Its value is 2.7 ng/mL.

Q: What about the “Growth Inhibition” value [7] of the same compound?
A: The value was under 0.5 ng/mL.

Q: And the CC50 [8]?
A: The CC50 was over 25 µM.

Q: And the “Growth Inhibition” value [9]?
A: Its value is under 0.1 ng/mL.

Q: And the CC50 [10]?
A: Its CC50 is over 25 µM.

Q: And the CC50 [11]?
A: Its CC50 is under 0.0025 µM.
